# Values quoted from earlier work, collected in patent US20240016441A1 (priority 2023, published 2024).
# Read-outs that look alike come from different tables or passages of the source.
# Experiments:
# BDNF = conditions: male athletes, p<0.05
# dopaminergic neurons [1] = conditions: related to a glyoxalase pathway
# [2] = for plasma L-lactate to brain metabolism: occipital-parietal lobe
# dopaminergic neurons [3] = conditions: neurons treated with L-lactate
# glabellar reflex = conditions: successful levodopa treatment, patients with Parkinson's disease
# [4] = in vivo
# [5] = 84 mEq/L at 5 ml*kg^-1*h^-1 for 3.5 hours, single anesthetized patient
# [6] = traumatic brain injury patients and healthy controls
smiles,measurement,setting,value
CC(O)C(=O)[O-].[Na+] (racemic) [sodium DL-lactate],BDNF blood concentration,BDNF,increase
C[C@@H](O)C(=O)O [D-lactate],survival of dopaminergic neurons,dopaminergic neurons [1],increase survival of dopaminergic neurons
C[C@H](O)C(=O)O [L-lactate],plasma L-lactate to brain metabolism,[2]; basal plasma L-lactate concentrations of ~1.0 mmol/L,10%
same,plasma L-lactate to brain metabolism,[2]; high physiologic plasma concentrations,≤ 60%
same,effect on dopaminergic neurons,dopaminergic neurons [3],apoptosis of dopaminergic neurons
N[C@@H](Cc1ccc(O)c(O)c1)C(=O)O [levodopa],glabellar reflex,glabellar reflex,reversal of the glabellar reflex
C[C@H](O)C(=O)[O-].[Na+] [sodium L-lactate],adverse effects,[4],without any adverse effects
same,vital signs,[5],without any significant change in vital signs
[13CH3]C(O)C(=O)[O-].[Na+] [sodium [3-^13C] L-lactate],adverse effects,"[2]; 350 mmol/L, priming dose then continuous infusion for ~120 min",without any adverse effects
same,complications,[6],without serious complications
same,peak L-lactate blood concentration,[6],10.6 mg/dL
